Read-outs that look alike come from different tables or passages of the source.
Tests used:
MDA-MB-436 cells = assay: Proliferation activity assay of MDA-MB-436 cells (CellTiter-Glo); type: cell-based; conditions: 4000 cells seeded, 6 days incubation, read-out: MDA-MB-436 proliferation inhibition IC50
Protocol: Complete culture medium was prepared and mixed thoroughly. The cells were resuscitated and cultured for about two passages to select a cell line in good growth condition. The cell culture flask was removed from the incubator. Cell adherence: the culture medium was aspirated, then the cells were washed once with trypsin to discard the waste liquid, and 3 mL of fresh trypsin was added to the culture flask for digestion. When the cells were loose to be detached from the wall of the flask, 8 mL of complete culture medium was added thereto to stop trypsin digestion and mixed gently. The cell suspension was transferred to a centrifuge tube with a pipette and centrifuged at 1000 rpm for 5 minutes. The supernatant was discarded. An appropriate volume of culture medium was added to the centrifuge tube and pipetted gently to resuspend the cells evenly. The cells were counted using a Vi-Cell XR cell counter. The cell suspension was adjusted to an appropriate concentration. The cell suspension was added to a 96-well plate at 100 µL/well. The details such as cell name, seeding density, and date were labelled, and the culture plate was placed in a CO2 incubator overnight.
The compound to be tested was prepared into a 10 mM stock solution, which was aliquoted and stored in a −20° C. freezer. The compound solution was added to a 96-well plate using HPD300. The plate was incubated in a CO2 incubator for a total of 6 days.
CellTiter-Glo buffer was melted at room temperature. The lyophilized CellTiter-Glo substrate was equilibrated to room temperature. CellTiter-Glo buffer was added to the CellTiter Glo substrate and mixed thoroughly. A cell plate was taken out and equilibrated to room temperature. 100 μL of mixed CellTiter Glo reagent was added to each well, and the mixture was shaken in the dark for 10 minutes, followed by incubation for 20 minutes. The culture plate was placed into an Enspire reading plate, and the luminescence reading results were recorded. […] A pharmacodynamic inhibition rate curve was plotted by using XLFit, and the IC50 value was calculated. The 4-parameter model [fit=(A+((B−A)/(1+((C/x)^D)))] was used.

PARP1 = PARP1 (Homo sapiens (Human), UniProt P09874); assay: PARP1 enzymatic activity assay; type: biochemical; conditions: for PARP1/PARP2 inhibition Selectivity multiple N (N = IC50 (PARP2)/IC50 (PARP1)): ratio IC50 (PARP2)/IC50 (PARP1); for IC50: final PARP1 0.02 nM, DNA 0.8 nM, NAD+ 3.5 μM, 60 minutes
Sequence of PARP1 (P09874 whole entry): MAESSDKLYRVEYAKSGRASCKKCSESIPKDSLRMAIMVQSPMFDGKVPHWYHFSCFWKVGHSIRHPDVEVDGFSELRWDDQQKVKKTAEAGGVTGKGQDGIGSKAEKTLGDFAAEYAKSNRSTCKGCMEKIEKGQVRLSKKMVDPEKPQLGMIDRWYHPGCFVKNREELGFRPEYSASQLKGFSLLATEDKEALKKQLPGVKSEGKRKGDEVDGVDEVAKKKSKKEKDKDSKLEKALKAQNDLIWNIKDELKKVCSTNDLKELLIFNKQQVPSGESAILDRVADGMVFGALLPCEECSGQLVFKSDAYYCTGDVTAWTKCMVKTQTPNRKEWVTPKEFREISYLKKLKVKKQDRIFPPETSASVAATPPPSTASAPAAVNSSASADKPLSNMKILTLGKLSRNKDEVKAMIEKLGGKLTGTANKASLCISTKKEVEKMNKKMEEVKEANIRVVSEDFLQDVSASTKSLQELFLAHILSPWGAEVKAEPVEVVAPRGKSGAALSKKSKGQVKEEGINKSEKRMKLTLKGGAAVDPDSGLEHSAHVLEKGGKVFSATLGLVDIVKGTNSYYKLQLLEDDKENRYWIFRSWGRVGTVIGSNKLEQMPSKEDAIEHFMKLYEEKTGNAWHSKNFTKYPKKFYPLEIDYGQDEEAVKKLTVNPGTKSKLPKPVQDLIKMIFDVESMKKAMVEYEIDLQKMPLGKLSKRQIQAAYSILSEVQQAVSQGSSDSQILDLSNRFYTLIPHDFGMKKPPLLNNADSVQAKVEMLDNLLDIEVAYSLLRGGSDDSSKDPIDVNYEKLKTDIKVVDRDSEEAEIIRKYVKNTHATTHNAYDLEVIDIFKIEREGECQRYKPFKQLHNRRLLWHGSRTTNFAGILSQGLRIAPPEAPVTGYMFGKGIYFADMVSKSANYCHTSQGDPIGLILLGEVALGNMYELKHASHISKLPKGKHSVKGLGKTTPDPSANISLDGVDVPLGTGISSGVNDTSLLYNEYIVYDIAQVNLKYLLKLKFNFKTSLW
Protocol: 2) After the coating was completed, the coating buffer was discarded.
After washing, the blocking buffer was discarded.
4) 1000× compound was prepared. 1 μL of compound was transferred to a 96-well plate containing 199 μL of reaction buffer (50 mM Tris-HCl (pH 7.5), 0.005% Tween-20, 0.01% BSA) and mixed well.
5) 25/10×PARP1-DNA solution was prepared with reaction buffer.
6) 25/10×NAD+ solution was prepared with reaction buffer.
8) Primary antibody was 2000-fold diluted with the blocking buffer. 20 μL of primary antibody was added to the reaction plate, which was incubated at room temperature for 1.5 hours.
9) The primary antibody was discarded.
10) Secondary antibody was 2000-fold diluted with the blocking buffer.
11) The secondary antibody was discarded.
The chemiluminescence value RLU was read with Envision.

PARP2 = PARP2 (Homo sapiens (Human), UniProt Q9UGN5); assay: PARP2 enzymatic activity assay; type: biochemical; conditions: Biotin-NAD+ 2 μM, 60 minutes
Sequence of PARP2 (Q9UGN5 whole entry): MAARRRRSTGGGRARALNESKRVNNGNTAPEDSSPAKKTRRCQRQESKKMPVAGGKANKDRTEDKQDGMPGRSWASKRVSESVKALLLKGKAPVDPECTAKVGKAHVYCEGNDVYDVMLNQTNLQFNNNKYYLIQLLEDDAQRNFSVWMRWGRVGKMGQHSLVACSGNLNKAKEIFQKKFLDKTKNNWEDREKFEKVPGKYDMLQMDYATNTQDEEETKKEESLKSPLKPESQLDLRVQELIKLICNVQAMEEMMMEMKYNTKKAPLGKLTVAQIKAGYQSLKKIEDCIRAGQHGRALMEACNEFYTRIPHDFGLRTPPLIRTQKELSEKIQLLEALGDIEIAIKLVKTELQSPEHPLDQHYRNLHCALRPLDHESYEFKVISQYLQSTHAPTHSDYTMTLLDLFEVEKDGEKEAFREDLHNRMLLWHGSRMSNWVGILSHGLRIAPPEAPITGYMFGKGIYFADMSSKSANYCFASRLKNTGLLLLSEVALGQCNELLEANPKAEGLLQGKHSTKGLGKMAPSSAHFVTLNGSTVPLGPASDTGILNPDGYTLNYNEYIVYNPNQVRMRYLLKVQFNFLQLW

[1] = Homo sapiens, MDA-MB-436, 144 h

Row | PARP1/PARP2 inhibition Selectivity multiple N (N = IC50 (PARP2)/IC50 (PARP1)) (PARP1) | IC50 (PARP2; final PARP2 […]) [nM] | IC50 (PARP1) [nM] | IC50 (PARP2; final PARP2 1.5 nM) [nM] | Structure (SMILES) | IC50 (MDA-MB-436 cells; [1]) [nM] | IC50 (MDA-MB-436 cells) [nM]
1 | – | – | – | – | CNC(=O)c1ccc(N2CCN(Cc3cnc4c5c(c(=O)[nH]c4c3)CCC5)[C@@H]3C[C@@H]32)cn1 (relative stereo) [Example 7, cis-N-methyl-5-(5-((6-oxo-6,7,8,9-tetrahydro-5H-cyclopenta[c][1,5]naphthyridin-3-yl)methyl)-2,5-diazabicyclo[4.1.0]heptan-2-yl)picolinamide] | 13 | –
2 | – | – | – | – | CCc1cc2ncc(CN3CCN(c4ccc(C(=O)NC5CC5)nc4)[C@H]4CC[C@H]43)cc2[nH]c1=O (relative stereo) [Example 46, cis-N-cyclopropyl-5-(5-((7-ethyl-6-oxo-5,6-dihydro-1,5-naphthyridin-3-yl)methyl)-2,5-diazabicyclo[4.2.0]octan-2-yl)pyridine-2-carboxamide] | 5 | –
3 | 16 | – | – | – | CCc1cc2ncc(CN3CCN(c4ccc(C(=O)NC)nc4)C4CCC43)cc2[nH]c1=O (stereo not shown) [Example 2, 5-(5-((7-ethyl-6-carbonyl-5,6-dihydro-1,5-naphthyridin-3-yl)methyl)-2,5-diazabicyclo[4.2.0]octan-2-yl)-N-methylpyridine-2-carboxamide] | 5 | –
4 | 48 | – | – | – | CCc1cc2ncc(CN3CCN(c4ccc(C(=O)NC)nc4)[C@@H]4CC[C@H]43)cc2[nH]c1=O [Example 2-3, 5-((1R,6R)-5-((7-ethyl-6-carbonyl-5,6-dihydro-1,5-naphthyridin-3-yl)methyl)-2,5-diazabicyclo[4.2.0]octan-2-yl)-N-methylpyridine-2-carboxamide] | – | –
5 | 40 | – | – | – | CCc1cc2ncc(CN3CCN(c4ccc(C(=O)NC)nc4)[C@H]4CC[C@@H]43)cc2[nH]c1=O [Example 2-4, 5-((1S,6S)-5-((7-ethyl-6-carbonyl-5,6-dihydro-1,5-naphthyridin-3-yl)methyl)-2,5-diazabicyclo[4.2.0]octan-2-yl)-N-methylpyridine-2-carboxamide] | 2 | –
6 | 83 | 75 | 0.9 | – | CCc1cc2nnc(CN3CCN(c4ccc(C(=O)NC)nc4)[C@@H]4C[C@@H]43)cc2[nH]c1=O [Example 5-1] | – | –
7 | 64 | 32 | 0.5 | – | CCc1cc2nnc(CN3CCN(c4ccc(C(=O)NC)nc4)C4C[C@H]43)cc2[nH]c1=O (stereo partly shown) [Example 5-2] | – | –
8 | 62 | 31 | 0.5 | – | CCc1cc2nnc(CN3CCN(c4ccc(C(=O)NC)nc4)C4C[C@H]43)cc2[nH]c1=O (stereo partly shown) [Example 5] | – | –
9 | 45 | 36 | 0.8 | – | CCc1cc2nnc(CN3CCN(c4ccc(C(=O)NC)nc4)[C@@H]4CC[C@@H]43)cc2[nH]c1=O [Example 10-1] | – | –
10 | 85 | 77 | 0.9 | – | CCc1cc2nnc(CN3CCN(c4ccc(C(=O)NC)nc4)C4CC[C@@H]43)cc2[nH]c1=O (stereo partly shown) [Example 10-2] | – | 5
11 | 105 | 105 | 1 | – | CCc1cc2nnc(CN3CCN(c4ccc(C(=O)NC)nc4)C4CC[C@H]43)cc2[nH]c1=O (stereo partly shown) [Example 10] | 9 | –
12 | 69 | 272 | 3.9 | – | CCc1nc2ncc(CN3CCN(c4ccc(C(=O)NC)nc4)[C@H]4CC[C@H]43)cc2[nH]c1=O [Example 11-1, 5-((1S,6R)-5-((3-ethyl-2-oxo-1,2-dihydropyrido[2,3-b]pyrazin-7-yl)methyl)-2,5-diazabicyclo[4.2.0]octan-2-yl)-N-methylpicolinamide] | – | –
13 | 135 | – | 1.5 | 202 | CCc1nc2ncc(CN3CCN(c4ccc(C(=O)NC)nc4)[C@@H]4CC[C@@H]43)cc2[nH]c1=O [Example 11-2, 5-((1R,6S)-5-((3-ethyl-2-oxo-1,2-dihydropyrido[2,3-b]pyrazin-7-yl)methyl)-2,5-diazabicyclo[4.2.0]octan-2-yl)-N-methylpicolinamide] | 9 | –
14 | 60 | – | 0.3 | 18 | CNC(=O)c1ccc(N2CCN(Cc3cnc4c5c(c(=O)[nH]c4c3)CCC5)[C@@H]3CC[C@@H]32)cn1 [Example 12-1, N-methyl-5-[(1S,6R)-5-((6-oxo-5H,7H,8H,9H-cyclopenta[c][1,5]naphthyridin-3-yl)methyl)-2,5-diazabicyclo[4.2.0]octan-2-yl]pyridine-2-carboxamide] | 15 | –
15 | – | – | – | – | CNC(=O)c1ccc(N2CCN(Cc3cnc4cc(C5CC5)c(=O)[nH]c4c3)[C@@H]3CC[C@@H]32)cn1 [Example 16-2] | 6 | –
16 | – | – | – | – | CNC(=O)c1ccc(N2CCN(Cc3cnc4cc(C(F)(F)F)c(=O)[nH]c4c3)[C@@H]3CC[C@@H]32)cn1 [Example 30-1, N-methyl-5-((1S,6R)-5-((6-oxo-7-(trifluoromethyl)-5,6-dihydro-1,5-naphthyridin-3-yl)methyl)-2,5-diazabicyclo[4.2.0]octan-2-yl)picolinamide] | 2 | –
17 | >45 | – | – | – | CNC(=O)c1ccc(N2CCN(Cc3cnc4cc(OC)c(=O)[nH]c4c3)[C@H]3CC[C@H]32)cn1 [Example 33-1] | – | –
18 | >130 | > 300 | 2.3 | – | CNC(=O)c1ccc(N2CCN(Cc3cnc4cc(OC)c(=O)[nH]c4c3)[C@@H]3CCC32)cn1 (stereo partly shown) [Example 33-2] | – | –
19 | – | – | – | – | CCc1cc2ncc(CN3CCN(c4ccc(C(=O)NC5CC5)nc4)[C@H]4CC[C@H]43)cc2[nH]c1=O [Example 46-1, N-cyclopropyl-5-((1S,6R)-5-((7-ethyl-6-oxo-5,6-dihydro-1,5-naphthyridin-3-yl)methyl)-2,5-diazabicyclo[4.2.0]octan-2-yl)picolinamide] | 8 | –
20 | – | – | – | – | CCc1cc2ncc(CN3CCN(c4ccc(C(=O)NC5CC5)nc4)[C@@H]4CC[C@@H]43)cc2[nH]c1=O [Example 46-2, N-cyclopropyl-5-((1R,6S)-5-((7-ethyl-6-oxo-5,6-dihydro-1,5-naphthyridin-3-yl)methyl)-2,5-diazabicyclo[4.2.0]octan-2-yl)picolinamide] | 2 | –
21 | – | – | – | – | CCc1cc2ncc(CN3CCN(c4ccc(C(=O)NC5CC5)nc4F)[C@H]4CC[C@H]43)cc2[nH]c1=O [Example 47-2, N-cyclopropyl-5-((1S,6R)-5-((7-ethyl-6-oxo-5,6-dihydro-1,5-naphthyridin-3-yl)methyl)-2,5-diazabicyclo[4.2.0]octan-2-yl)-6-fluoropicolinamide] | 3 | –
22 | – | – | – | – | CCc1cc2ncc(CN3CCN(c4ccc(C(=O)NC5CCC5)nc4)[C@@H]4CC[C@@H]43)cc2[nH]c1=O [Example 48-1, N-cyclobutyl-5-((1R,6S)-5-((7-ethyl-6-oxo-5,6-dihydro-1,5-naphthyridin-3-yl)methyl)-2,5-diazabicyclo[4.2.0]octan-2-yl)picolinamide] | 12 | –
23 | – | – | – | – | CCc1cc2ncc(CN3CCN(c4ccc(C(=O)NC5CCC5)nc4)[C@H]4CC[C@H]43)cc2[nH]c1=O [Example 48-2, N-cyclobutyl-5-((1S,6R)-5-((7-ethyl-6-oxo-5,6-dihydro-1,5-naphthyridin-3-yl)methyl)-2,5-diazabicyclo[4.2.0]octan-2-yl)picolinamide] | 2 | –
